Results published in patent US20170007561A1, “CONTEMPORANEOUS, HETEROGENEOUSLY-ORIENTED, MULTI-TARGETED THERAPEUTIC MODIFICATION AND/OR MODULATION OF DISEASE BY ADMINISTRATION OF SULFUR-CONTAINING, AMINO ACID-SPECIFIC SMALL MOLECULES” (BioNumerik Pharmaceuticals, Inc., priority 2014, published 2017).
“Also recorded” adds a separate entry of the source.

Columns and labels:
Recombinant human ERCC1 = target: T1, Recombinant human ERCC1 (Homo sapiens, UniProt P07992); assay: LC-MS of trypsin-digested ERCC1 after incubation with Tavocept; assay type: binding; details: 20 mM Tavocept, LC-MS of tryptic fragments
T1 construct: 6xHis (N); purchased Creative BioMart; host or cells: E. coli
Protocol: Recombinant human ERCC1 (1 mg; 27.8 nanomoles, Creative BioMart) was reduced using a vast excess of dithiothreitol (DTT, 100 μl of a 500 mM stock) in ammonium bicarbonate (40 mM, pH 8.0) at 37° C. for 75 minutes (total reaction volume was 900 μL). […] Each 800 μl reaction was then chromatographed over a NAP10 column. This step removed unreacted Tavocept and was used for the buffer control simply to ensure that both samples received the same handling/manipulation during the course of the experiment. The elution volume from each NAP10 column was 1.2 mL. […] Trypsin digestion reactions were incubated for 1 hour at 30° C. and then for 17 hours at room temperature (23° C.). Following the Trypsin digest, the samples were lyophilized to dryness overnight and then resuspended in a volume of approximately 100 μL water and analyzed using LC-MS. A Symmetry C18 HPLC column (Waters, Franklin, Mass.; 3.5 μm; 4.6 mm×75 mm) and a Waters Alliance liquid chromatography system (Waters 2695, Franklin, Mass., USA) coupled to a Micromass single quadropole mass detector (Micromass ZMD, Manchester, UK) were used to analyze fragments from trypsin-digested human ERCC1. The mobile phase contained 0.1% of formic acid throughout the run and the flow rate was 0.35 mL/min. […]

human cancer cell lines = assay: Paclitaxel- and platinum-induced cytotoxicity; assay type: cell-based
Excerpt: Tavocept mediates the non-enzymatic xenobiotic modification of sulfur-containing amino acid residues (e.g., cysteine) on proteins. As an engineered, non-naturally occurring agent (i.e., xenobiotic), Tavocept is autocatalytic and requires no protein cofactor to cause the xenobiotic modification of cysteine, but appears to be specific for cysteine residues located within a particular structural context (i.e., not all cysteines in a protein are so modified). Tavocept-mediated, xenobiotic modification represents a novel mechanism of action for a cancer treating agent and can be compared to a degree with post-translational modifications of cysteine residues in proteins (see, Table 3, below).

TrxR/Trx system = target: T2, TrxR/Trx system (Homo sapiens, UniProt P10599); assay: TrxR/Trx NADPH oxidation assay; assay type: biochemical
T2 construct: purchased Sigma (Trx); American Diagnostica (bovine TrxR)
T2 sequence (P10599 1-105): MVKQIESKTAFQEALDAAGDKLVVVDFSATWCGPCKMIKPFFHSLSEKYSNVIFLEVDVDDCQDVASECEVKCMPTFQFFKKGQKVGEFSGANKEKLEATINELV
Excerpt: (Note: error bars are small and may be obscured by the symbols). […] (Note: error bars were omitted but assays were run in quadruplicate with typical errors of 5-8% between individual replicates). […] Panel D: Initial velocity reaction rates corresponding to progress curves shown in Panel C. With time, Trx-mesna and Trx-GSH are converted back to apo-Trx by Trx reductase (see also, FIG. 69, Panel E).

T1 sequence (P07992 whole entry, the tested form may be a part): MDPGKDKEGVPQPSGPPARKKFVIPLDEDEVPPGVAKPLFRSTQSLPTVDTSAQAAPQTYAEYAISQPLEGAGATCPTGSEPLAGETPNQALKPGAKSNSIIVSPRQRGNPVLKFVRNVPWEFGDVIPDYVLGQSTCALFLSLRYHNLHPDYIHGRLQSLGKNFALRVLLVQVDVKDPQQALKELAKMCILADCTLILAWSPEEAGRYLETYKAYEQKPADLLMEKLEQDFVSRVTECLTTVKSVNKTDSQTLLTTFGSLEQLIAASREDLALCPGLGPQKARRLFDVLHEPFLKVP

Q: Which results are given for `O=S(=O)([O-])CCSSCCS(=O)(=O)[O-].[Na+].[Na+]` [Tavocept, disodium 2,2′-dithio-bis-ethane sulfonate]?
A: ERCC1 cysteine residue carrying Tavocept-derived mesna adduct (Recombinant human ERCC1): Cys238; also recorded: Cys274; interference with paclitaxel- and platinum-induced cytotoxicity (human cancer cell lines): not to interfere; mode of action on Trx (TrxR/Trx system): alternative substrate inhibitor; NADPH oxidation by TrxR and Trx (TrxR/Trx system; increasing concentrations of test substance): increases
